Source: patent publication US5021439A, “Cerebral function ameliorating agents related to Tan-950 A” (priority 1988, dated 1991)
Read-outs that look alike come from different tables or passages of the source.

Legend:
[1] = target: NMDA-type receptor; experiment: Binding assay of NMDA-type receptor (3H-CPP) on rat forebrain crude synaptic membrane; settings: for IC50: 10 nM 3H-CPP, pH 7.1, 0° C., 15 min, read-out: Affinity to NMDA-type receptor (3H-CPP), IC50; for Affinity to the NMDA-type-receptor (in words): summary of Table 5
Excerpt: (§1) The receptors of the exitatory amino acid (especially, glutamate) are classified into NMDA type, Quisqualate type and Kainate type. 3H-CPP [3-(2-carboxypiperazin-4-yl)propyl-1-[…]] as the ligand (a radio active substance which has high affinity for the receptor) for the NMDA-type-receptor, ^3 H-AMPA (DL-α-amino-3-hydroxy-5-methylisoxazole-4-propionic acid) as the ligand for the quisqualate-type-receptor, and ^3 H-kainic acid as the ligand for the kainate-type-receptor were used respectively. A sample of the crude synaptic membrane prepared from the forebrain of rat was washed 4 times by Tris hydrochloric acid buffer (pH 7.1) and kept in a freezing condition at -20° C. until its use.
(§2) Samples of the frozen crude synaptic membrane were melted and, after floating on 50 mM Tris hydrochloric acid buffer (pH 7.1), incubated for 30 minutes at 37° C. After the incubation, the synaptic membrane was centrifuged (48,000×g) and washed 3 times with 50 mM Tris hydrochloric acid buffer and used in the test.
(§3) In the binding assay of the NMDA-type-receptor, samples of the synaptic membrane were incubated in the presence or absence of a test compound together with 10 nM ^3 H-CPP in 50 mM Tris hydrochloric acid buffer (pH 7.1, 0° C.) for 15 minutes. The sediment (pellet) containing synapse membrane which was recovered by centrifugation of the incubation solution was rinsed with 50 mM Tris hydrochloric acid buffer (pH 7.1) and dissolved in 0.5 ml of Protosol® (made by New England Nuclear Inc.). In the binding assay of Quisqualate-type-receptor and Kainate-type-receptor, samples of the synapse was incubated in the presence or absence of a test compound in 5 nM ^3 H-AMPA (Quisqualate-type-receptor) or 2 nM ^3 H-Kainic acid (Kainate-type-receptor) together with 50 mM Tris hydrochloric acid buffer (pH 7.1, 0° C.) for 90 minutes. The solution was filtered with Whatman GF/B filter (Whatman®, made by Whatman Inc.) under reduced pressure and the filter was washed 3 times with 50 mM Tris hydrochloric acid buffer. The radioactivity on the filter was measured by a conventional method. The specific binding amount was determined by subtracting the non-specific binding from the total binding, taking the binding in the presence of an excessive non-radioactive L-sodium glutamate (1 mM) as the amount of the non-specfic binding, i.e., the binding to anything other than the receptor. The 50% inhibiting concentration (IC50) of the compound to be tested was determined as the concentration which inhibits 50% of the specific receptor binding of ^3 H-CPP, ^3 H-AMPA or ^3 H-kainic acid.

[2] = target: Quisqualate-type receptor; experiment: Binding assay of Quisqualate-type receptor (3H-AMPA) on rat forebrain crude synaptic membrane; settings: for IC50: 5 nM 3H-AMPA, pH 7.1, 0° C., 90 min, read-out: Affinity to Quisqulate-type receptor (3H-AMPA), IC50; for Affinity to the Quisqualate-type-receptor (in words): summary of Table 5
Excerpt: as §1, §2
as §3, with “receptor.” for “receptor. The 50% inhibiting concentration (IC50) of the compound to be tested was determined as the concentration which inhibits 50% of the specific receptor binding of ^3 H-CPP, ^3 H-AMPA or ^3 H-kainic acid.”

[3] = target: Kainate-type receptor; experiment: Binding assay of Kainate-type receptor (3H-kainic acid) on rat forebrain crude synaptic membrane; settings: for Affinity to Kainate-type receptor (3H-KA), IC50: 2 nM 3H-Kainic acid, pH 7.1, 0° C., 90 min; for Affinity to the Kainate-type-receptor (in words): summary of Table 5
Excerpt: as §1, §2
as §3, with “receptor.” for “receptor. The 50% inhibiting concentration (IC50) of the compound to be tested was determined as the concentration which inhibits 50% of the specific receptor binding of ^3 H-CPP, ^3 H-AMPA or ^3 H-kainic acid.”

[4] = system: glutamate receptor (NMDA type, Quisqualate type and Kainate type); experiment: Affinity for the glutamate receptors of the brain, 3 sub-types taken together; format: binding, rat; settings: summary of Table 5
Excerpt: as §1, §2, §3

[5] = system: neurons of rat hippocampus; experiment: Excitatory action on neurons of rat hippocampus in vitro (CA1 spike recording in slices); format: cell-based; settings: rat hippocampal slices, CA1 pyramidal cell layer, Krebs-Ringer solution 33° C., read-out: Minimum effective concentration to induce firing of hippocampus nervous cell
Protocol: Male Wister rats (body weight: 300 -350 g) were used in the test. After cutting the head of rats, the brain was quickly taken out and […] thickness of the sliced samples of a hippocampus was prepared by a slice cutter. These samples were incubated in a nutrient solution (Krebs-Ringer solution, 33° C.) saturated with a mixed gas of 95% of oxygen gas and 5% of carbon dioxide gas for one or more hours. The test was carried out in the perfusion cisterna with perfusing at the flow speed of 1.5 ml/min. The action potential (spike) in CA1 pyramidal cell layer of the hippocampus was recorded extracellularlly by using a glass electrode filled with 2M NaCl solution. The test compounds were added to the perfusate and the change in number of the spikes with passage of time was counted by a pulse counter and recorded on the recorder. The Krebs-Ringer's solution contains 124 mM of NaCl, 5 mM of KCl, 1.24 mM of KH2 PO4, 1.3 mM of MgSO4, 2.4 mM of CaCL2, 26 mM of […] and 10 mM of glucose.

[6] = system: Memory Dysfunction Induced by Cycloheximide Administration; experiment: Improvement of cycloheximide-induced memory dysfunction, passive avoidance in mice; format: in vivo, C57BL/b mice; settings: for Tested Retention Time (percentage to control group), latency: i.p., twice, 30 min before acquisition and before retention test, memory impairment group = 100; for Effect on memory dysfunction / latency (in words): mouse, in vivo
Protocol: Experimental memory disturbance was induced by administering a protein synthesis inhibiting agent, cycloheximide to C57BL/b male mice of 5 week-age. The memory test was carried out using a passive avoidance learning equipment consisting of two chambers of dark and bright. At first, a memory acquisition process of mice was carried out. In this process, a mouse was released in the bright chamber and the guillotine type door connecting between bright and dark chambers was open. Immediately after the mouse that likes a dark place having entered into the dark chamber, said guillotine type door was closed and an electric shock of 0.4 mA was given to the mouse for 3 seconds through the floor grid. Mice learned through this process to receive electric shock from the floor once they move to the dark chamber. However, the memory formation in mice that received cycloheximide (60 mg/Kg) subcutaneously 30 minutes before this memory acquisition process becomes insufficient. The memory retention test was carried out in accordance with similar procedures with mice which received cycloheximide (memory dysfunction group) and normal mice on the next day that the memory acquisition process was carried out. A time from the release of mice in the bright chamber to the entry into the dark chamber through the guillotine type door opened was measured (latency). The latency was shorter in the memory dysfunction group and the effectiveness of the compounds was determined in terms of a degree of the prolongation of latency. The test compounds were intraperitoneally administered twice in total to the mice each 30 minutes before the memory acquisition process and the memory keeping test.
The effect of the compounds in improving a memory dysfunction was expressed as a percentage in which the latency in the memory impairment group at the memory retention test was regarded as 100, and the results are shown in Table 7.

N[C@@H](Cc1c(C2CCCC2)[nH]oc1=O)C(=O)O [Compound 158]
IC50 [1]: > 100 µM | IC50 [2]: 0.31 µM | Affinity to the Quisqualate-type-receptor (in words) [2]: strong affinity | Affinity to Kainate-type receptor (3H-KA), IC50 [3]: 57 µM | Affinity to the 3 sub-type receptors (in words) [4]: differences in their affinities | minimal effective concentration ([5]; Rattus norvegicus, Neuron): ≥ 0.3 µM

Cc1[nH]oc(=O)c1C[C@@H](N)C(=O)O [Compound 78]
IC50 [1]: 68 µM | IC50 [2]: 3.9 µM | Affinity to the Quisqualate-type-receptor (in words) [2]: strong affinity | Affinity to Kainate-type receptor (3H-KA), IC50 [3]: 98 µM | Affinity to the 3 sub-type receptors (in words) [4]: high affinities to the 3 sub-type receptors | minimal effective concentration ([5]; Rattus norvegicus, Neuron): ≥ 30 µM | Tested Retention Time (percentage to control group), latency ([6]; 1 mg/kg): 179 percentage to control group | Tested Retention Time (percentage to control group), latency ([6]; 10 mg/kg, * in table: p < 0.05): 222 percentage to control group | Effect on memory dysfunction / latency (in words) [6]: prolong the latency significantly

CCc1[nH]oc(=O)c1C[C@H](N)C(=O)O [Compound 81]
IC50 [1]: 35 µM | IC50 [2]: 0.67 µM | Affinity to the Quisqualate-type-receptor (in words) [2]: strong affinity | Affinity to Kainate-type receptor (3H-KA), IC50 [3]: 17 µM | Affinity to the 3 sub-type receptors (in words) [4]: high affinities to the 3 sub-type receptors | minimal effective concentration ([5]; Rattus norvegicus, Neuron): ≥ 1 µM

N[C@@H](C(=O)O)c1c[nH]oc1=O [Compound 149]
IC50 [1]: 5.8 µM | Affinity to the NMDA-type-receptor (in words) [1]: high affinity | IC50 [2]: > 100 µM | Affinity to Kainate-type receptor (3H-KA), IC50 [3]: > 100 µM | Affinity to the 3 sub-type receptors (in words) [4]: differences in their affinities | minimal effective concentration ([5]; Rattus norvegicus, Neuron): ≥ 30 µM

Cc1[nH]oc(=O)c1C[C@H](N)C(=O)O [Compound 75]
IC50 [1]: 11 µM | IC50 [2]: 0.31 µM | Affinity to the Quisqualate-type-receptor (in words) [2]: strong affinity | Affinity to Kainate-type receptor (3H-KA), IC50 [3]: 7.3 µM | Affinity to the Kainate-type-receptor (in words) [3]: strong affinity | Affinity to the 3 sub-type receptors (in words) [4]: high affinities to the 3 sub-type receptors | minimal effective concentration ([5]; Rattus norvegicus, Neuron): ≥ 1 µM | Tested Retention Time (percentage to control group), latency ([6]; 1 mg/kg): 205 percentage to control group | Tested Retention Time (percentage to control group), latency ([6]; 10 mg/kg, * in table: p < 0.05): 184 percentage to control group | Effect on memory dysfunction / latency (in words) [6]: prolong the latency significantly

CCc1[nH]oc(=O)c1[C@@H](N)C(=O)O [Compound 180]
IC50 [1]: 7.9 µM | Affinity to the NMDA-type-receptor (in words) [1]: high affinity | IC50 [2]: > 100 µM | Affinity to Kainate-type receptor (3H-KA), IC50 [3]: > 100 µM | Affinity to the 3 sub-type receptors (in words) [4]: differences in their affinities | minimal effective concentration ([5]; Rattus norvegicus, Neuron): ≥ 30 µM

Cc1[nH]oc(=O)c1[C@@H](N)C(=O)O [Compound 155]
IC50 [1]: 8.3 µM | Affinity to the NMDA-type-receptor (in words) [1]: high affinity | IC50 [2]: > 100 µM | Affinity to Kainate-type receptor (3H-KA), IC50 [3]: > 100 µM | Affinity to the 3 sub-type receptors (in words) [4]: differences in their affinities | minimal effective concentration ([5]; Rattus norvegicus, Neuron): ≥ 10 µM

N[C@@H](CCC(=O)O)C(=O)O [Glutamic acid, reference compound]
Tested Retention Time (percentage to control group), latency ([6]; 10 mg/kg, * in table: p < 0.05): 101 percentage to control group

N[C@H](Cc1c[nH]oc1=O)C(=O)O [Compound 72]
IC50 [1]: 6.2 µM | Affinity to the NMDA-type-receptor (in words) [1]: high affinity | IC50 [2]: 14 µM | Affinity to Kainate-type receptor (3H-KA), IC50 [3]: 37 µM | Affinity to the 3 sub-type receptors (in words) [4]: high affinities to the 3 sub-type receptors | minimal effective concentration ([5]; Rattus norvegicus, Neuron): ≥ 300 µM | minimal effective concentration ([5]; listed as 72 (hydrochloride)): 300 µM | Tested Retention Time (percentage to control group), latency ([6]; 1 mg/kg): 217 percentage to control group | Tested Retention Time (percentage to control group), latency ([6]; 10 mg/kg, * in table: p < 0.05): 278 percentage to control group | Effect on memory dysfunction / latency (in words) [6]: prolong the latency significantly

CC(C)c1[nH]oc(=O)c1C[C@H](N)C(=O)O [Compound 84]
IC50 [1]: > 100 µM | IC50 [2]: 3.8 µM | Affinity to Kainate-type receptor (3H-KA), IC50 [3]: 67 µM | Affinity to the 3 sub-type receptors (in words) [4]: high affinities to the 3 sub-type receptors | minimal effective concentration ([5]; Rattus norvegicus, Neuron): ≥ 3 µM

N[C@@H](Cc1c[nH]oc1=O)C(=O)N1CCCCC1C(=O)O (stereo partly shown) [Compound 132]
IC50 [1]: 6.3 µM | Affinity to the NMDA-type-receptor (in words) [1]: high affinity | IC50 [2]: 1 µM | Affinity to the Quisqualate-type-receptor (in words) [2]: strong affinity | Affinity to Kainate-type receptor (3H-KA), IC50 [3]: 4.5 µM | Affinity to the Kainate-type-receptor (in words) [3]: strong affinity | Affinity to the 3 sub-type receptors (in words) [4]: high affinities to the 3 sub-type receptors | minimal effective concentration ([5]; Rattus norvegicus, Neuron): ≥ 300 µM

N[C@@H](Cc1c(C2CC2)[nH]oc1=O)C(=O)O [Compound 173]
IC50 [1]: 13 µM | IC50 [2]: 0.12 µM | Affinity to the Quisqualate-type-receptor (in words) [2]: strong affinity | Affinity to Kainate-type receptor (3H-KA), IC50 [3]: 3.8 µM | Affinity to the Kainate-type-receptor (in words) [3]: strong affinity | Affinity to the 3 sub-type receptors (in words) [4]: high affinities to the 3 sub-type receptors | minimal effective concentration ([5]; Rattus norvegicus, Neuron): ≥ 0.3 µM

N[C@@H](Cc1c(-c2ccccc2)[nH]oc1=O)C(=O)O [Compound 87]
IC50 [1]: 11 µM | IC50 [2]: 15 µM | Affinity to Kainate-type receptor (3H-KA), IC50 [3]: 26 µM | Affinity to the 3 sub-type receptors (in words) [4]: high affinities to the 3 sub-type receptors | minimal effective concentration ([5]; Rattus norvegicus, Neuron): 30 µM
